In patent publication US20260199484A1, “PROTAC DEGRADERS OF MLLT1 AND/OR MLLT3” (DARK BLUE THERAPEUTICS LTD, priority 2024, published 2026):

Target: T1, MLLT1 (Homo sapiens, UniProt Q03111)
T1 sequence (Q03111 1-559): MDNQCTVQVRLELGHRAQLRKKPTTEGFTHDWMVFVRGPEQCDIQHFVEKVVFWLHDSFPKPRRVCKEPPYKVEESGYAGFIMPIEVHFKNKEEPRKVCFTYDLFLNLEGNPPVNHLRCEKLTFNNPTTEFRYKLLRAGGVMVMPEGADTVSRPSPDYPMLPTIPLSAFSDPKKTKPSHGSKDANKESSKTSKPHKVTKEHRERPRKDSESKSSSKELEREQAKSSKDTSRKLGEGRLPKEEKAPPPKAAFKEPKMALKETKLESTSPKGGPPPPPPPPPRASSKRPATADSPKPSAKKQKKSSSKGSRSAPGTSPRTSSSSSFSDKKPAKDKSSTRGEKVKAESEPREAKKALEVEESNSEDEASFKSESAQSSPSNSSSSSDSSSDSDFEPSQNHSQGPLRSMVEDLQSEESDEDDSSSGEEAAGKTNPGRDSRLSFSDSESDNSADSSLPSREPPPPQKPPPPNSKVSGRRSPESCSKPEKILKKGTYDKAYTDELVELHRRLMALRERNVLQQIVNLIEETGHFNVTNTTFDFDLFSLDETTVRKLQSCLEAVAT
Assay: MLLT1 degradation assay in MV4-11 cells (JESS, 24 h)
Type: cell-based
Design: endogenous in cells; host or cells: MV4-11 (ATCC CRL-9591)
Conditions: vs DMSO control
Procedure: MLLT1 degradation efficacy of compounds was tested in an automated chemiluminescent detection system (JESS, Cat #004-650). MV4-11 (#CRL-9591, ATCC) cells were seeded at a density of 1.2 million cells/well in a non-treated 6-well cell culture plate in 2.4 mL of complete medium (IMDM+10% FBS+1× Penicillin-Streptomycin). 10 mM DMSO stocks were prepared, and cells were treated with three concentrations of test compounds viz. 1000, 100 and 10 nM at a final DMSO concentration of 0.1% and incubated for 24 h at 37° C., 5% CO2. Post incubation, cells were centrifuged, washed with HBSS and lysed in 70 μL of RIPA buffer supplemented with Protease inhibitors (sc-24948; Santa Cruz). Subsequently, protein estimation was done using BCA protein assay kit (23225; Pierce). 4 ug protein lysate (4 uL of 1 ug/uL lysate) was loaded into each well of the JESS cartridge (SM-W001; Bio-techne) and the JESS run was performed using 1:900 dilution of anti-human MLLT1 antibody (14893; Cell signaling technology) and 1:1200 dilution of anti-human GAPDH antibody (2118; Cell signaling technology) with anti-rabbit secondary detection module (DM-001; Bio-Techne). Post run, data were analysed using “Compass for SW” software for chemiluminescent detection. The peak area for each band was used for the calculation of MLLT1 degradation with respect to DMSO control. Data is shown as “MLLT1% degradation”. • Category A: A≥75% degradation • Category B: 50%≤B<75% degradation • Category C: 25%≤C<50% degradation • Category D: D<25% degradation

Row | MLLT1% Degradation @ 0.01 μM | MLLT1% Degradation @ 0.1 μM | MLLT1% Degradation @ 1 μM | SMILES
1 | A (Category A: A≥75% degradation) | A (Category A: A≥75% degradation) | A (Category A: A≥75% degradation) | Cc1nn(CCCCCCCC#Cc2cccc3c2CN(C2CCC(=O)NC2=O)C3=O)c2cc(C(=O)Nc3cc4[nH]c([C@H]5CC6(CC6)CN5C)cc4cn3)ccc12 (stereo in doubt) [Example 56, 1-(9-(2-(2,6-dioxopiperidin-3-yl)-1-oxoisoindolin-4-yl)non-8-yn-1-yl)-3-methyl-N-(2-((rel-R)-5-methyl-5-azaspiro[2.4]heptan-6-yl)-1H-pyrrolo[3,2-c]pyridin-6-yl)-1H-indazole-6-carboxamide]
2 | B (Category B: 50%≤B<75% degradation) | A (Category A: A≥75% degradation) | A (Category A: A≥75% degradation) | Cc1nn(CC2CCN(c3cccc4c3CN(C3CCC(=O)NC3=O)C4=O)CC2)c2cc(C(=O)Nc3cc4[nH]c([C@H]5CCCN5C)cc4cn3)ccc12 (stereo in doubt) [Example 108, 1-((1-(2-((rel-R)-2,6-dioxopiperidin-3-yl)-1-oxoisoindolin-4-yl)piperidin-4-yl)methyl)-3-methyl-N-(2-((R)-1-methylpyrrolidin-2-yl)-1H-pyrrolo[3,2-c]pyridin-6-yl)-1H-indazole-6-carboxamide]
3 | D (Category D: D<25% degradation) | D (Category D: D<25% degradation) | B (Category B: 50%≤B<75% degradation) | Cc1nn(CCCCCCCCNc2cccc3c2C(=O)N(C2CCC(=O)NC2=O)C3=O)c2cc(C(=O)Nc3cc4[nH]c([C@@H]5CCCN5C)cc4cn3)ccc12 (stereo partly drawn) [Example 4, 1-(8-{[2-(2,6-dioxopiperidin-3-yl)-1,3-dioxoisoindol-4-yl]amino}octyl)-3-methyl-N-{2-[(2S)-1-methylpyrrolidin-2-yl]-1H-pyrrolo[3,2-c]pyridin-6-yl}indazole-6-carboxamide]
4 | B (Category B: 50%≤B<75% degradation) | B (Category B: 50%≤B<75% degradation) | C (Category C: 25%≤C<50% degradation) | Cc1c2ccc(C(=O)Nc3cc4[nH]c([C@H]5CCCN5C)cc4cn3)cc2nn1CCCCCCCCNc1cccc2c1C(=O)N(C1CCC(=O)NC1=O)C2=O (stereo partly drawn) [Example 5, 2-(8-((2-(2,6-dioxopiperidin-3-yl)-1,3-dioxoisoindolin-4-yl)amino)octyl)-3-methyl-N-(2-((R)-1-methylpyrrolidin-2-yl)-1H-pyrrolo[3,2-c]pyridin-6-yl)-2H-indazole-6-carboxamide]
5 | C (Category C: 25%≤C<50% degradation) | B (Category B: 50%≤B<75% degradation) | A (Category A: A≥75% degradation) | CN1CCC[C@@H]1c1cc2cnc(NC(=O)c3ccc4c(c3)c(N3CCC(CN5CCN(c6cc7c(cc6F)C(=O)N(C6CCC(=O)NC6=O)C7=O)CC5)CC3)nn4C)cc2[nH]1 (stereo partly drawn) [Example 6, 3-[4-({4-[2-(2,6-dioxopiperidin-3-yl)-6-fluoro-1,3-dioxoisoindol-5-yl]piperazin-1-yl}methyl)piperidin-1-yl]-1-methyl-N-{2-[(2R)-1-methylpyrrolidin-2-yl]-1H-pyrrolo[3,2-c]pyridin-6-yl}indazole-5-carboxamide]
6 | D (Category D: D<25% degradation) | C (Category C: 25%≤C<50% degradation) | A (Category A: A≥75% degradation) | Cc1c(OCCCCCCCCn2nc(C)c3ccc(C(=O)Nc4cc5[nH]c([C@H]6CCCN6C)cc5cn4)cc32)cccc1N1CCC(=O)NC1=O [Example 9, 1-{8-[3-(2,4-dioxo-1,3-diazinan-1-yl)-2-methylphenoxy]octyl}-3-methyl-N-{2-[(2R)-1-methylpyrrolidin-2-yl]-1H-pyrrolo[3,2-c]pyridin-6-yl}indazole-6-carboxamide]
